According to US10093630B2, “Pyrazole compounds and methods of making and using same” (ABIDE THERAPEUTICS, INC., priority 2014, dated 2018):

Legend:
Assay in all cases: In vitro competitive activity-based protein profiling (gel-based, FP-Rh or HT-01 probe)
Format in all cases: biochemical
ABHD6 = target: T1, ABHD6 (Mus musculus, UniProt Q8R2Y0); conditions: for inhibition at 1 µM: 1 μM inhibitor, read-out: % Inhibition at 1 μM, C = ABHD6; for inhibition at 10 µM: 10 μM inhibitor, read-out: % Inhibition at 10 μM, C = ABHD6
T1 construct: Proteomes (mouse brain membrane fraction or cell lysates); from tissue; host or cells: mouse brain membrane fraction (or cell lysates, not specified)
T1 sequence (Q8R2Y0 1-336): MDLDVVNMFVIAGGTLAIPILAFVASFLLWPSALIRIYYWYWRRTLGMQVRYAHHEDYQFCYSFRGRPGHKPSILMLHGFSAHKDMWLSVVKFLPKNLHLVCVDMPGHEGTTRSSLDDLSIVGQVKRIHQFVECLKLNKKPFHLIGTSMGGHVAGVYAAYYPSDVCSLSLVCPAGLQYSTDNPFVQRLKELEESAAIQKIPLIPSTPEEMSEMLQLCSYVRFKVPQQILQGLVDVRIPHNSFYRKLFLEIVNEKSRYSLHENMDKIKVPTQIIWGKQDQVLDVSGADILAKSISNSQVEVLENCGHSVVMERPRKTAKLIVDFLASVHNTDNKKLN
Procedure, shortened: (§1)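 Mouse brain membrane or cell lysate proteomes (1.0 mg/mL) preincubated with inhibitors 30 min at 37° C, then labelled with FP-Rh or HT-01 for 30 min at 37° C. After SDS-PAGE, activity quantified from fluorescent band intensity.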

PLA2G7 = target: T2, PLA2G7 (Mus musculus, UniProt Q60963); conditions: for inhibition at 1 µM: 1 μM inhibitor, read-out: % Inhibition at 1 μM, D = PLA2G7; for inhibition at 10 µM: 10 μM inhibitor, read-out: % Inhibition at 10 μM, D = PLA2G7
T2 construct: Proteomes (mouse brain membrane fraction or cell lysates); from tissue; host or cells: mouse brain membrane fraction (or cell lysates, not specified)
T2 sequence (Q60963 22-440): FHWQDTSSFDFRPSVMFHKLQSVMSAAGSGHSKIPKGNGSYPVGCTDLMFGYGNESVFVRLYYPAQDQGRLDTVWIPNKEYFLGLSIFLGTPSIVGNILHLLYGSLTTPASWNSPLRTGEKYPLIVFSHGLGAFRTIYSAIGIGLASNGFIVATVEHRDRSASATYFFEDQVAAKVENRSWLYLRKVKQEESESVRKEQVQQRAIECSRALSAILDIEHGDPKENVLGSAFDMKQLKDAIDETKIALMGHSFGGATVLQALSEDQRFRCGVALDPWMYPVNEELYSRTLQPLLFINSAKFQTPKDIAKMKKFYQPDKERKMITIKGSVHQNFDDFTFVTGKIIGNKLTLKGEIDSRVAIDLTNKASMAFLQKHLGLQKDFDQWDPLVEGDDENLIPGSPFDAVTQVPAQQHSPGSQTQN
Procedure, shortened: as §1

FAAH = target: T3, FAAH (Mus musculus, UniProt O08914); conditions: for inhibition at 1 µM: 1 μM inhibitor, read-out: % Inhibition at 1 μM, B = FAAH; for inhibition at 10 µM: 10 μM inhibitor, read-out: % Inhibition at 10 μM, B = FAAH
T3 construct: Proteomes (mouse brain membrane fraction or cell lysates); from tissue; host or cells: mouse brain membrane fraction (or cell lysates, not specified)
T3 sequence (O08914 1-579): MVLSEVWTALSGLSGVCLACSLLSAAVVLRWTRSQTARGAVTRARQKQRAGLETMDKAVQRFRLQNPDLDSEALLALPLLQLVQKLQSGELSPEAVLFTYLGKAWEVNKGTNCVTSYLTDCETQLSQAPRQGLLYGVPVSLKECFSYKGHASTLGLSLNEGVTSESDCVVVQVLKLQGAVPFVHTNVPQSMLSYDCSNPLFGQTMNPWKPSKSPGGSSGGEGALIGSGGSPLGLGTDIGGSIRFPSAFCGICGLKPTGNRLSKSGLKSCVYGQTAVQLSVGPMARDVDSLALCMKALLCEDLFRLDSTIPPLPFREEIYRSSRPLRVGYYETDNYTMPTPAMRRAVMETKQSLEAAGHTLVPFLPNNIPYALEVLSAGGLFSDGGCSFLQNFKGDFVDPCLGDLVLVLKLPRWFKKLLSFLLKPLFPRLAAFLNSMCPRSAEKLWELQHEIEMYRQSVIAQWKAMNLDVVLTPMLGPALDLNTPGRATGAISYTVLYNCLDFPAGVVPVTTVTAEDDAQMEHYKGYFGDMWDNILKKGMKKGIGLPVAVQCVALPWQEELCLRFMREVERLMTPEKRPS
Procedure, shortened: as §1

MAGL = target: T4, MAGL (Mus musculus, UniProt O35678); conditions: for inhibition at 1 µM: 1 μM inhibitor; for inhibition at 10 µM: 10 μM inhibitor
T4 construct: Proteomes (mouse brain membrane fraction or cell lysates); from tissue; host or cells: mouse brain membrane fraction (or cell lysates, not specified)
T4 sequence (O35678 1-303): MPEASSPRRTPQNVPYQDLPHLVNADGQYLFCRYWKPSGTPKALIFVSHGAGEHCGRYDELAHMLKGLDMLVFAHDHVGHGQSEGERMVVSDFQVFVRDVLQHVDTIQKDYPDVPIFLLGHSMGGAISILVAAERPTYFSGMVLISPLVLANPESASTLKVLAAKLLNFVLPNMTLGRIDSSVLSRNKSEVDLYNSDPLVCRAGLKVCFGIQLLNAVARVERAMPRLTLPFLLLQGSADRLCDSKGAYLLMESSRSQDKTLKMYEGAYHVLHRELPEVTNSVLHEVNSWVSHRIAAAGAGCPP
Procedure, shortened: as §1

Structure (SMILES)	inhibition at 1 µM (ABHD6) [%]	inhibition at 10 µM (ABHD6) [%]	IC50 (ABHD6; mouse brain membrane fraction or cell lysates, 30 min preincubation at 37° C., read-out: Mouse (IC50 value, nM) ABHD6) [nM]	inhibition at 1 µM (PLA2G7) [%]	inhibition at 10 µM (PLA2G7) [%]	inhibition at 1 µM (FAAH) [%]	inhibition at 10 µM (FAAH) [%]	IC50 (FAAH; mouse brain membrane fraction or cell lysates, 30 min preincubation at 37° C., read-out: Mouse (IC50 value, nM) FAAH) [nM]	inhibition at 1 µM (MAGL) [%]	inhibition at 10 µM (MAGL) [%]	IC50 (MAGL; mouse brain membrane fraction or cell lysates, 30 min preincubation at 37° C., read-out: Mouse (IC50 value, nM) MAGL) [nM]
O=C(N1CCN(Cc2ccc(-c3ccccc3)cc2Cl)CC1)n1cc(C(F)(F)F)cn1 [Example 143, (4-((3-Chlorobiphenyl-4-yl)methyl)piperazin-1-yl)(4-(trifluoromethyl)-1H-pyrazol-1-yl)methanone]	> 75	> 75	100 to 1000	25 to 75	> 75	> 75	> 75	< 100	> 75	> 75	< 100
COc1cc(-c2ccccc2)ccc1CN1CCN(C(=O)n2cc(C(F)(F)F)cn2)CC1 [Example 144, (4-((3-Methoxybiphenyl-4-yl)methyl)piperazin-1-yl)(4-(trifluoromethyl)-1H-pyrazol-1-yl)methanone]	> 75	> 75	–	> 75	> 75	> 75	> 75	–	> 75	> 75	–
COc1cc(-c2ccccc2)ccc1CN1CCN(C(=O)n2cc(C#N)cn2)CC1 [Example 145, 1-(4-((3-Methoxybiphenyl-4-yl)methyl)piperazine-1-carbonyl)-1H-pyrazole-4-carbonitrile]	> 75	> 75	–	> 75	> 75	> 75	> 75	–	> 75	> 75	–
N#Cc1cnn(C(=O)N2CCN(Cc3ccc(-c4ccccc4)cc3OCc3ccccc3)CC2)c1 [Example 146, 1-(4-((3-(Benzyloxy)biphenyl-4-yl)methyl)piperazine-1-carbonyl)-1H-pyrazole-4-carbonitrile]	> 75	> 75	–	< 25	> 75	> 75	> 75	–	> 75	> 75	–
O=C(N1CCN(Cc2ccc(-c3ccccc3)cc2OCc2ccccc2)CC1)n1cc(C(F)(F)F)cn1 [Example 147, (4-((3-(Benzyloxy)biphenyl-4-yl)methyl)piperazin-1-yl)(4-(trifluoromethyl)-1H-pyrazol-1-yl)methanone]	> 75	> 75	–	< 25	> 75	> 75	> 75	–	> 75	> 75	–
O=C(N1CCN(Cc2ccc(-c3ccccc3)cc2OCc2ccccc2)CC1)n1cc(Cl)cn1 [Example 148, (4-((3-(Benzyloxy)biphenyl-4-yl)methyl)piperazin-1-yl)(4-chloro-1H-pyrazol-1-yl)methanone]	> 75	> 75	–	< 25	< 25	> 75	> 75	–	> 75	> 75	–
CC(=O)N1CCN(C(=O)n2cc(C(F)(F)F)cn2)CC1 [Example 149, 1-(4-(4-(Trifluoromethyl)-1H-pyrazole-1-carbonyl)piperazin-1-yl)ethanone]	< 25	25 to 75	–	> 75	> 75	< 25	< 25	–	< 25	25 to 75	–
CS(=O)(=O)N1CCN(C(=O)n2cc(C(F)(F)F)cn2)CC1 [Example 150, (4-(Methylsulfonyl)piperazin-1-yl)(4-(trifluoromethyl)-1H-pyrazol-1-yl)methanone]	> 75	> 75	–	> 75	> 75	< 25	25 to 75	–	< 25	25 to 75	–
